# Results as given in ChEMBL document CHEMBL3885861, “Open TG-GATES”.
# Species: Rattus norvegicus
# Experiment: Open TG-GATES - Regimen: Daily Repeat
# Assay type: toxicity, organism-based, Sprague-Dawley
# Design: regimen Daily Repeat, gender Male, age 6 weeks
# Conditions: in vivo, po, route gavage; for APTT / Bas / Eos / Fbg / Ht / Lym / MCH / MCHC / MCV / Mono / Neu / PT / Plat / RBC / Ret / WBC / Hb: tissue Blood; for KIDNEY_L / KIDNEY_R / KIDNEY_TOTAL: tissue Kidney; for LIVER: tissue Liver; for ALP / AST / BUN / CRE / Ca / Cl / DBIL / GLC / IP / LDH / Na / PL / RALB / TBIL / TC / TG / TP / gamma-GTP: tissue Plasma
# [1] = 0 mg/kg, 72 h, dose level Control, time 3 day
# [2] = 0 mg/kg, […], dose level Control, time 7 day
# [3] = 0 mg/kg, […], dose level Control, time 14 day
# [4] = 0 mg/kg, […], dose level Control, time 28 day
compound,measurement,setting,value
CC(=O)N1CCN(c2ccc(OCC3COC(Cn4ccnc4)(c4ccc(Cl)cc4Cl)O3)cc2)CC1 (stereo unspecified) [KETOCONAZOLE],TERMINAL_BW,[1],231 g
same,APTT,[1],20.9 s
same,Bas,[1],0%
same,Eos,[1],0.8%
same,Fbg,[1],294.6 mg/dL
same,Ht,[1],38.3%
same,Lym,[1],82%
same,MCH,[1],21.7 pg
same,MCHC,[1],34.3%
same,MCV,[1],63.3 fL
same,Mono,[1],2.2%
same,Neu,[1],14.2%
same,PT,[1],16.5 s
same,Plat,[1],118.7 x10_4/uL
same,RBC,[1],604.8 x10_4/ul
same,Ret,[1],6.5%
same,WBC,[1],106.4 x10_2/uL
same,KIDNEY_L,[1],1.1 g
same,KIDNEY_R,[1],1.1 g
same,KIDNEY_TOTAL,[1],2.1 g
same,LIVER,[1],10.8 g
same,ALP,[1],1650.6 IU/L
same,AST,[1],68 IU/L
same,BUN,[1],18.6 mg/dL
same,CRE,[1],0.2 mg/dL
same,Ca,[1],10.8 mg/dL
same,Cl,[1],106.2 meq/L
same,DBIL,[1],0 mg/dL
same,GLC,[1],184.2 mg/dL
same,IP,[1],5.9 mg/dL
same,LDH,[1],222.4 IU/L
same,Na,[1],140.2 meq/L
same,PL,[1],142.6 mg/dL
same,RALB,[1],3 g/dL
same,TBIL,[1],0.012 mg/dL
same,TC,[1],71 mg/dL
same,TG,[1],85.2 mg/dL
same,TP,[1],5.6 g/dL
same,gamma-GTP,[1],1.4 IU/L
same,TERMINAL_BW,[2],269.3 g
same,TERMINAL_BW,[3],301.1 g
same,TERMINAL_BW,[4],376.7 g
same,APTT,[2],22.6 s
same,Bas,[2],0%
same,Eos,[2],1%
same,Fbg,[2],301.6 mg/dL
same,Hb,[2],13.6 g/dL
same,Ht,[2],40.1%
same,Lym,[2],78.4%
same,MCH,[2],21.1 pg
same,MCHC,[2],34%
same,Mono,[2],2%
same,Neu,[2],17.8%
same,PT,[2],16.1 s
same,Plat,[2],91.9 x10_4/uL
same,RBC,[2],645.4 x10_4/ul
same,Ret,[2],5.5%
same,WBC,[2],94.3 x10_2/uL
same,APTT,[3],22.2 s
same,Bas,[3],0%
same,Eos,[3],0.8%
same,Fbg,[3],298 mg/dL
same,Hb,[3],14 g/dL
same,Ht,[3],40.9%
same,Lym,[3],81.4%
same,MCH,[3],20.5 pg
same,MCHC,[3],34.3%
same,MCV,[3],59.8 fL
same,Mono,[3],1.6%
same,Neu,[3],15.4%
same,PT,[3],16.1 s
same,Plat,[3],113.5 x10_4/uL
same,RBC,[3],685 x10_4/ul
same,Ret,[3],4.1%
same,WBC,[3],110.9 x10_2/uL
same,Bas,[4],0%
same,Eos,[4],1%
same,Fbg,[4],291.4 mg/dL
same,Hb,[4],14.9 g/dL
same,Ht,[4],43.4%
same,Lym,[4],83.8%
same,MCH,[4],19.1 pg
same,MCHC,[4],34.3%
same,MCV,[4],55.8 fL
same,Mono,[4],1.6%
same,Neu,[4],11.8%
same,PT,[4],17 s
same,Plat,[4],107.7 x10_4/uL
same,RBC,[4],779.8 x10_4/ul
same,Ret,[4],2.5%
same,WBC,[4],126.2 x10_2/uL
same,KIDNEY_L,[2],1.2 g
same,KIDNEY_R,[2],1.2 g
same,KIDNEY_TOTAL,[2],2.4 g
same,KIDNEY_L,[3],1.1 g
same,KIDNEY_R,[3],1.2 g
same,KIDNEY_TOTAL,[3],2.3 g
same,KIDNEY_L,[4],1.3 g
same,KIDNEY_R,[4],1.4 g
same,KIDNEY_TOTAL,[4],2.7 g
same,LIVER,[2],12.2 g
same,LIVER,[4],15.3 g
same,ALP,[2],1766.8 IU/L
same,AST,[2],69.2 IU/L
same,BUN,[2],19 mg/dL
same,CRE,[2],0.2 mg/dL
same,Ca,[2],10.8 mg/dL
same,Cl,[2],106.4 meq/L
same,DBIL,[2],0 mg/dL
same,GLC,[2],182.8 mg/dL
same,IP,[2],6.7 mg/dL
same,LDH,[2],176.2 IU/L
same,Na,[2],141.8 meq/L
same,PL,[2],156.8 mg/dL
same,RALB,[2],3.2 g/dL
same,TBIL,[2],0.002 mg/dL
same,TC,[2],80.6 mg/dL
same,TG,[2],102.8 mg/dL
same,TP,[2],5.8 g/dL
same,gamma-GTP,[2],1.2 IU/L
same,ALP,[3],1657 IU/L
same,AST,[3],71.2 IU/L
same,BUN,[3],19 mg/dL
same,CRE,[3],0.2 mg/dL
same,Ca,[3],10.3 mg/dL
same,Cl,[3],107.2 meq/L
same,DBIL,[3],0 mg/dL
same,GLC,[3],178.4 mg/dL
same,IP,[3],6.4 mg/dL
same,LDH,[3],207.6 IU/L
same,Na,[3],142.4 meq/L
same,PL,[3],167.6 mg/dL
same,RALB,[3],3 g/dL
same,TBIL,[3],0.002 mg/dL
same,TG,[3],140.8 mg/dL
same,TP,[3],5.8 g/dL
same,gamma-GTP,[3],1 IU/L
same,ALP,[4],1167.6 IU/L
same,AST,[4],73.6 IU/L
same,BUN,[4],19.6 mg/dL
same,CRE,[4],0.2 mg/dL
same,Ca,[4],10.3 mg/dL
same,Cl,[4],106.8 meq/L
same,DBIL,[4],0 mg/dL
same,GLC,[4],190.2 mg/dL
same,IP,[4],5.5 mg/dL
same,LDH,[4],168.4 IU/L
same,Na,[4],141.8 meq/L
same,PL,[4],144.4 mg/dL
same,RALB,[4],3.1 g/dL
same,TBIL,[4],0.016 mg/dL
same,TC,[4],66 mg/dL
same,TG,[4],153.2 mg/dL
same,TP,[4],6 g/dL
same,gamma-GTP,[4],1.2 IU/L
same,TERMINAL_BW,"10 mg/kg, 72 h, dose level Low, time 3 day",236.3 g
